Results published in patent US5624923A, “Tricyclic diazepine vasopressin antagonists and oxytocin antagonists” (priority 1995, dated 1997).

Assays:
oxytocin receptors = biological target: T1, oxytocin receptors (Rattus norvegicus, UniProt P70536); assay: Oxytocin Receptor Binding; conditions: for IC50: 1.0 nM [3H]oxytocin
T1 construct: The uteri are dissected out, cleaned of fat and connective tissues; from tissue; host or cells: uterus of DES-treated female Sprague-Dawley rats
T1 sequence (P70536 1-388): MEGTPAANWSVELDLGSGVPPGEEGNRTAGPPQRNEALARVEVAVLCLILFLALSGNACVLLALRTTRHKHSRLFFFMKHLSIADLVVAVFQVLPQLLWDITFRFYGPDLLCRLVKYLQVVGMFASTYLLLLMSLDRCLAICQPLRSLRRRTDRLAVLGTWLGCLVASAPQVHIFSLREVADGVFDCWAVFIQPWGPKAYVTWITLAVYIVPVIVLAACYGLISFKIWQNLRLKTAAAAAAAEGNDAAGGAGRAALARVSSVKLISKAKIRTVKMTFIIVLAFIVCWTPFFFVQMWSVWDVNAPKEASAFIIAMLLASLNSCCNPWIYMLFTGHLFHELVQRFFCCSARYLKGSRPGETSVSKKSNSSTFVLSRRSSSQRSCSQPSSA
Procedure, shortened: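 Membranes from uteri of DES-primed (0.3 mg/kg i.m., 18 h) female Sprague-Dawley rats. Competition with 1.0 nM [3H]oxytocin in 50 mM Tris.HCl pH 7.4, 5 mM MgCl2 with protease inhibitors, 60 min at 22 °C, filtration read-out. Non-specific binding with 1.0 uM unlabeled OT; IC50 calculated.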

Vasopressin V1 = Vasopressin V1 Antagonist Activity in Conscious Rats (vasopressin vasopressor response); format: in vivo, rat
Procedure, shortened: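 Conscious rats are restrained supine, and under local 2% procaine a PE 10/20 cannula is passed through the ventral caudal tail artery into the lower abdominal aorta. The caudal vein is cannulated for intravenous dosing. Blood pressure is recorded with a Statham P23Db transducer, and vasopressin injections are repeated after compound dosing. Percent antagonism is calculated against the pre-drug vasopressor response taken as 100%.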

[1] = biological target: T2, Rat Kidney Medullary V2 Receptors (Rattus norvegicus, UniProt Q00788); assay: Binding Assay to Rat Kidney Medullary V2 Receptors; conditions: for inhibition at 10 µM: rat; for IC50: rat kidney medulla membranes, read-out: V2 IC50
T2 construct: Medullary tissues from rat kidneys are dissected out; from tissue; host or cells: rat kidney medulla membranes
Procedure, shortened: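 Membranes were prepared from rat kidney medulla and stored in 50.0 mM Tris-HCl pH 7.4 with 0.2% BSA and 0.1 mM PMSF. Radioligand competition ran 120 min at bench temperature, with 1.0 μM unlabeled ligand defining nonspecific binding. Compounds were added in 50% DMSO; filtration, tritium scintillation counting, IC50 from competition analysis.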

T2 sequence (Q00788 whole entry): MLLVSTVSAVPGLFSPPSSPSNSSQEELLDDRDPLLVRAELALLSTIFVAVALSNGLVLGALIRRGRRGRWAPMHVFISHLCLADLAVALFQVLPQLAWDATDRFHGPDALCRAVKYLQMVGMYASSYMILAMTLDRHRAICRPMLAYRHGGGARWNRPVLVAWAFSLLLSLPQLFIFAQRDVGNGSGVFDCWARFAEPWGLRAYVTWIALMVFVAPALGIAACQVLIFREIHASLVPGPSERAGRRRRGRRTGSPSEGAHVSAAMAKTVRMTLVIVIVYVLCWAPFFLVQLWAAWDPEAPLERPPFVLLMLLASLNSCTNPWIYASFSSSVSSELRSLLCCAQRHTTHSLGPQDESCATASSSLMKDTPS

inhibition at 10 µM (oxytocin receptors; [3H]oxytocin)	inhibition at 10 µM [1]	IC50 (oxytocin receptors)	inhibition at 2.5 µM (oxytocin receptors; dose 2.5 μM, [3H]oxytocin)	IC50 [1]	Compound	Max. % Inhibition (Vasopressin V1; 30 mg/kg i.v.)	Time (of max. % inhibition) (Vasopressin V1; 30 mg/kg i.v.)	Max. % Inhibition (Vasopressin V1; 10 mg/kg i.v.)	Time (of max. % inhibition) (Vasopressin V1; 10 mg/kg i.v.)	Max. % Inhibition (Vasopressin V1; 30 mg/kg p.o.)	Time (of max. % inhibition) (Vasopressin V1; 30 mg/kg p.o.)
0%	22%				Cc1ccccc1C(=O)Nc1c(C)cc(C(=O)N2Cc3cccn3Cc3ccccc32)cc1C [Example 472]	36%	90 min				
		220 nM	92%	4.5 nM	Cc1ccccc1C(=O)Nc1ccc(C(=O)N2Cc3cccn3Cc3ccccc32)c(Cl)c1 [Example 470]			87%	180 min	69%	180 min
99%		310 nM		3.7 nM	Cc1ccccc1C(=O)Nc1ccc(C(=O)N2Cc3cccn3Cc3ccccc32)cc1Cl [Example 530, N-[4-(5H-Pyrrolo[2,1-c][1,4]benzodiazepin-10(11H)-ylcarbonyl)-2-chlorophenyl]-2-methylbenzamide]	89%	120 min				
44%	82%				COC(=O)c1ccc(C(=O)Nc2ccc(C(=O)N3Cc4cccn4Cc4ccccc43)cc2)cc1 [Example 489]	39%	120 min				
